Source: US7671050B2, “Triazolophthalazines” (NYCOMED GmbH, priority 2005, dated 2010)
No end group written: not given here.

Assays:
HUVEC monolayers = assay: Inhibition of thrombin-stimulated macromolecule (HRP) permeability of HUVEC monolayers; assay type: cell-based, human; conditions: 1 U/ml thrombin; for IC50: Homo sapiens, 1 h, HUVEC on Transwells, 1 μM RP73401, 10 μM Motapizone, 1 mM SNP or 100 nM ANP, HRP passage after 60 min, read-out: Inhibition of SNP- or ANP-induced permeability, -log IC50 (converted); for Effect on thrombin-induced hyperpermeability (HRP passage): 1 μM RP73401 together with 10 μM Motapizone, 60 min
Protocol: The procedure to measure macromolecule permeability of endothelial cell monolayers followed the method described by Langeler & van Hinsbergh (1988) with modifications. Human umbilical vein endothelial cells were isolated from umbilical cords according to standard procedures (Jaffe et al. 1973) and cultured in endothelial cell basal medium (EBM) supplemented with 2% FCS, 0.5 ng/ml VEGF, 10 ng/ml bFGF, 5 ng/ml EGF, 20 ng/ml Long R3 IGF-1, 0.2 μg/ml hydrocortisone, 1 μg/ml ascorbic acid, 22.5 μg/ml heparin, 50 μg/ml gentamicin, 50 ng/ml amphotericin B (EGM2 purchased from Promocell GmbH, Heidelberg, Germany). At confluency, cells were trypsinized and replated at 73000 cells per well on 3 μm polycarbonate filter Transwell inserts (Costar GmbH, Bodenheim, Germany) precoated with 10 μg cm^2−1 Fibronectin (Sigma, Taufkirchen, Germany). HUVECs were cultured in EGM2 (100 μl in the upper wells and 600 μl in the lower wells) over four days prior the experiments and medium was changed every other day. At the day of the experiment culture medium was replaced by M199 with 1% human serum albumin. Endothelial cells were preincubated with cyclic nucleotide modifiers (the selective PDE3 inhibitor motapizone, the selective PDE4 inhibitor RP73401, the cGMP generators ANP or SNP and PDE2 inhibitors) for 15 min. HUVECs were then stimulated with Thrombin (1 U ml^−1) (Sigma, Taufkichen, Germany) and horsh radish peroxidase (5 μg/ml) (Sigma, Taufkirchen, Germany) as the macromolecule marker protein was added to the upper wells. Following 1 h incubation time Transwells were removed and the activity of horsh radish peroxidase that penetrated the endothelial cell monolayer was measured in the lower wells with the 3,3′,5,5′-tetramethylbenzidine liquid substrate system from Sigma (Taufkirchen, Germany).
In parallel, compounds according to the invention can inhibit Thrombin-induced permeability of HUVEC monolayers for horsh radish peroxidase (HRP) as a macromolecule marker. […] The concentration-dependent inhibition of HRP permeability at different concentrations was assessed from the percent inhibition in the presence and absence of the PDE2 inhibitors and in the presence of 1 μM RP73401, 10 μM Motapizone and 100 nM ANP.
HUVEC cells on 3 μm polycarbonate filters (Transwells) were preincubated with 1 μM RP73401 (to block PDE4) and 10 μM Motapizone (to block PDE3), 1 mM SNP or 100 nM ANP and test sample over 15 min and then stimulated with 1 U/ml thrombin. HRP passage into the lower wells was assessed after 60 min.

melting point	Compound	IC50 (HUVEC monolayers)	Effect on thrombin-induced hyperpermeability (HRP passage) (HUVEC monolayers)	Effect on the block of thrombin-induced hyperpermeability by RP73401 and Motapizone (HUVEC monolayers; 1 mM SNP or 100 nM ANP added to 1 μM RP73401 and 10 μM Motapizone)
297.5 °C	CCOc1ccc(Nc2nn3c(-c4ccc(OC)cc4)nnc3c3ccccc23)cc1 [Example 12, (4-Ethoxyphenyl)-[3-(4-methoxyphenyl)-[1,2,4]triazolo[3,4-a]phthalazin-6-yl]-amine]	7.94 to 316 nM	–	–
247 °C	COc1ccc(-c2nnc3c4ccccc4c(Nc4cccc(OC(F)F)c4)nn23)cc1 [Example 28, [3-(1,1-Difluoromethoxy)-phenyl]-[3-(4-methoxyphenyl)-[1,2,4]triazolo[3,4-a]phthalazin-6-yl]-amine]	7.94 to 316 nM	–	–
306 °C	c1ccc(-c2nnc3c4ccccc4c(Nc4ccc(N5CCOCC5)cc4)nn23)cc1 [Example 25, (4-Morpholin-4-ylphenyl)-(3-phenyl-[1,2,4]triazolo[3,4-a]phthalazin-6-yl)-amine]	7.94 to 316 nM	–	–
314 °C	COc1ccc(-c2nnc3c4ccccc4c(Nc4ccc(N5CCOCC5)cc4)nn23)cc1 [Example 13, [3-(4-Methoxyphenyl)-[1,2,4]triazolo[3,4-a]phthalazin-6-yl]-(4-morpholin-4-yl-phenyl)-amine]	7.94 to 316 nM	–	–
–	COc1ccc(C(=O)Nc2c(Cl)cncc2Cl)cc1OC1CCCC1 [RP73401, reference compound]	–	completely blocked	–
–	COc1ccc(-c2nnc3c4ccccc4c(Nc4cccc(OC)c4)nn23)cc1 [Example 7, (3-Methoxyphenyl)-[3-(4-methoxyphenyl)-[1,2,4]triazolo[3,4-a]phthalazin-6-yl]-amine]	7.94 to 316 nM	–	–
295 °C	COc1ccc(-c2nnc3c4ccccc4c(Nc4ccc(Cl)cc4)nn23)cc1 [Example 5, (4-Chlorophenyl)-[3-(4-methoxyphenyl)-[1,2,4]triazolo[3,4-a]phthalazin-6-yl]-amine]	–	–	–
294 °C	COc1ccc(-c2nnc3c4ccccc4c(Nc4ccc(OC(F)F)cc4)nn23)cc1 [Example 30, [4-(1,1-Difluoromethoxy)-phenyl]-[3-(4-methoxyphenyl)-[1,2,4]triazolo[3,4-a]phthalazin-6-yl]-amine]	7.94 to 316 nM	–	–
–	COC(=O)c1cccc(-c2nnc3c4ccccc4c(Nc4ccc(N5CCOCC5)cc4)nn23)c1 [Example 19, 3-[6-(4-Morpholin-4-yl-phenylamino)-[1,2,4]triazolo[3,4-a]phthalazin-3-yl]-benzoic acid methyl ester]	7.94 to 316 nM	–	–
303 °C	COC(=O)c1ccc(-c2nnc3c4ccccc4c(Nc4ccc(N5CCOCC5)cc4)nn23)cc1 [Example 22, 4-[6-(4-Morpholin-4-yl-phenylamino)-[1,2,4]triazolo[3,4-a]phthalazin-3-yl]-benzoic acid methyl ester]	–	–	–
–	CC1CC(=O)NN=C1c1cc(-n2ccnc2)cs1 (centres unmarked) [Motapizone, reference compound]	–	completely blocked	–
275.5 °C	COc1ccc(-c2nnc3c4ccccc4c(Nc4ccc(Oc5ccccc5)cc4)nn23)cc1 [Example 8, [3-(4-Methoxyphenyl)-[1,2,4]triazolo[3,4-a]phthalazin-6-yl]-(4-phenoxyphenyl)-amine]	7.94 to 316 nM	–	–
–	COc1ccc(-c2nnc3c4ccccc4c(Nc4cccc(OC(F)(F)F)c4)nn23)cc1 [Example 24, [3-(4-Methoxyphenyl)-[1,2,4]triazolo[3,4-a]phthalazin-6-yl]-(3-trifluoromethoxyphenyl)-amine]	7.94 to 316 nM	–	–
300 °C	COc1ccc(-c2nnc3c4ccccc4c(Nc4ccc(OC(F)(F)F)cc4)nn23)cc1 [Example 14, [3-(4-Methoxyphenyl)-[1,2,4]triazolo[3,4-a]phthalazin-6-yl]-(4-trifluoromethoxyphenyl)-amine]	7.94 to 316 nM	–	–
242.5 °C	CCOc1ccc(Nc2nn3c(-c4ccc(OC)cc4)nnc3c3ccccc23)cc1OCC [Example 29, (3,4-Diethoxyphenyl)-[3-(4-methoxyphenyl)-[1,2,4]triazolo[3,4-a]phthalazin-6-yl]-amine]	7.94 to 316 nM	–	–
218 °C	COc1ccc(-c2nnc3c4ccccc4c(Nc4cc(OC)cc(OC)c4)nn23)cc1 [Example 27, (3,5-Dimethoxyphenyl)-[3-(4-methoxyphenyl)-[1,2,4]triazolo[3,4-a]phthalazin-6-yl]-amine]	7.94 to 316 nM	–	–
297 °C	COc1ccc(-c2nnc3c4ccccc4c(Nc4ccc(OCc5ccccc5)cc4)nn23)cc1 [Example 10, (4-Benzyloxyphenyl)-[3-(4-methoxyphenyl)-[1,2,4]triazolo[3,4-a]phthalazin-6-yl]-amine]	7.94 to 316 nM	–	–
317 °C	Oc1ccccc1-c1nnc2c3ccccc3c(Nc3ccc(N4CCOCC4)cc3)nn12 [Example 26, 2-[6-(4-Morpholin-4-yl-phenylamino)-[1,2,4]triazolo[3,4-a]phthalazin-3-yl]-phenol]	7.94 to 316 nM	–	–
314 to 316 °C	COc1ccc(-c2nnc3c4ccccc4c(Nc4ccc(Br)cc4)nn23)cc1 [Example 31, (4-Bromo-phenyl)-[3-(4-methoxy-phenyl)-[1,2,4]triazolo[3,4-a]phthalazin-6-yl]-amine]	–	–	–
–	CCOc1cccc(Nc2nn3c(-c4ccc(OC)cc4)nnc3c3ccccc23)c1 [Example 23, (3-Ethoxyphenyl)-[3-(4-methoxyphenyl)-[1,2,4]triazolo[3,4-a]phthalazin-6-yl]-amine]	7.94 to 316 nM	–	–
311 °C	COc1ccc(-c2nnc3c4ccccc4c(Nc4ccc(C)cc4)nn23)cc1 [Example 11, [3-(4-Methoxyphenyl)-[1,2,4]triazolo[3,4-a]phthalazin-6-yl]-p-tolyl-amine]	7.94 to 316 nM	–	–
–	COc1ccc(-c2nnc3c4ccccc4c(Nc4cccc(Oc5ccccc5)c4)nn23)cc1 [Example 9, [3-(4-Methoxyphenyl)-[1,2,4]triazolo[3,4-a]phthalazin-6-yl]-(3-phenoxyphenyl)-amine]	7.94 to 316 nM	–	–
306 °C	c1ccc(Oc2ccc(-c3nnc4c5ccccc5c(Nc5ccc(N6CCOCC6)cc5)nn34)cc2)cc1 [Example 17, (4-Morpholin-4-yl-phenyl)-[3-(4-phenoxyphenyl)-[1,2,4]triazolo[3,4-a]phthalazin-6-yl]-amine]	7.94 to 316 nM	–	–
260 °C	COc1ccc(-c2nnc3c4ccccc4c(Nc4cccc(OCc5ccccc5)c4)nn23)cc1 [Example 4, (3-Benzyloxyphenyl)-[3-(4-methoxyphenyl)-[1,2,4]triazolo[3,4-a]phthalazin-6-yl]-amine]	–	–	–
301 to 304 °C	COc1ccc(Nc2nn3c(-c4ccc(OC)cc4)nnc3c3ccccc23)cc1 [Example 1, (4-Methoxyphenyl)-[3-(4-methoxyphenyl)-[1,2,4]triazolo[3,4-a]phthalazin-6-yl]-amine]	–	–	–
266 °C	COc1ccc(-c2nnc3c4ccccc4c(Nc4ccc(N5CCN(C)CC5)cc4)nn23)cc1 [Example 18, [3-(4-Methoxyphenyl)-[1,2,4]triazolo[3,4-a]phthalazin-6-yl]-[4-(4-methylpiperazin-1-yl)-phenyl]-amine]	7.94 to 316 nM	–	–
–	ANP: cGMP generator (SLRRSSCFGGRMDRIGAQSGLGCNSFRY; ends and bridges not checked; cysteine pairing not given here; UniProt P01160 124-151, looked up) [reference compound]	–	–	partially reversed
322 °C	c1ccc2c(c1)c(Nc1ccc(N3CCOCC3)cc1)nn1c(-c3ccc(N4CCOCC4)cc3)nnc21 [Example 20, (4-Morpholin-4-yl-phenyl)-[3-(4-morpholin-4-yl-phenyl)-[1,2,4]triazolo[3,4-a]phthalazin-6-yl]-amine]	–	–	–
–	COc1ccc(-c2ccc(Nc3nn4c(-c5ccc(OC)cc5)nnc4c4ccccc34)cc2)cc1 [Example 6, (4′-Methoxybiphenyl-4-yl)-[3-(4-methoxyphenyl)-[1,2,4]triazolo[3,4-a]phthalazin-6-yl]-amine]	7.94 to 316 nM	–	–
–	COc1ccc(-c2nnc3c4ccccc4c(Nc4ccc(OC)c(OC)c4)nn23)cc1 [Example 2, (3,4-Dimethoxy-phenyl)-[3-(4-methoxy-phenyl)-[1,2,4]triazolo[3,4-a]phthalazin-6-yl]-amine]	7.94 to 316 nM	–	–
